In article PMC4344207 (PLoS ONE, 2015):
Read-outs that look alike come from different tables or passages of the source.

How the values were obtained:
[1] = system: exendin-4 degradation in rat kidney homogenate; assay: Inhibition of exendin-4 metabolism by protease inhibitors in rat kidney homogenate; format: biochemical
[2] = system: exendin-4 degradation in rat liver homogenate; assay: Inhibition of exendin-4 metabolism by protease inhibitors in rat liver homogenate; format: biochemical
[3] = humans, biologically active GLP-1; cited from earlier work
Text: (§1) In 2003, the International Diabetes Federation (IDF) estimated that almost 200 million people around the world had diabetes mellitus (DM). Approximately 90–95% of people with DM have type 2 diabetes mellitus (T2DM), which is characterized by hyperglycemia, insulin resistance, absolute or relative insulin deficiency, hyperglucagonemia, and increased hepatic glucose production. An optimal therapy for controlling the circulating glucose levels has not been established, and many currently available therapies are associated with unfavorable side effects, which limit their use. […] Although naturally resist ...

[4] = system: plasma dipeptidyl peptidase-IV (DPP-IV); settings: circulating GLP-1, rat and human plasma DPP-IV; cited from earlier work
Text: as §1

Molecule	percentage inhibition of exendin-4 degradation, kidney [1]	percentage inhibition of exendin-4 degradation, liver [2]	other results
CC(C)C[C@@H](N)[C@H](O)C(=O)N[C@H](C(=O)N[C@H](C(=O)N[C@@H](CC(=O)O)C(=O)O)C(C)C)C(C)C [amastatin]	32%	13.2%	–
O=C(O)CNC(=O)C(CS)Cc1ccccc1 (racemic) [DL-thiorphan]	–	–	percentage inhibition of exendin-4 degradation, kidney ([1]; rat kidney homogenate, inhibitor pre-incubated 10 min at 37°C, then exendin-4 10 μM for 30 min, NEM 10 mM, phenanthroline 2 mM, PPACK 210 μM, soybean 1 mg/mL, DL-thiorphan 2 mM, captopril 30 μM, DFP 10 mM, PMSF 1 mM, amastatin 100 μM, bestatin 2 mM, LC-ESI-MS, n = 3): 73%; percentage inhibition of exendin-4 degradation, liver ([2]; rat liver homogenate, inhibitor pre-incubated 10 min at 37°C, then exendin-4 10 μM for 60 min, NEM 10 mM, phenanthroline 2 mM, PPACK 210 μM, soybean 1 mg/mL, DL-thiorphan 2 mM, captopril 30 μM, DFP 10 mM, PMSF 1 mM, amastatin 100 μM, bestatin 2 mM, LC-ESI-MS, n = 3): no effect
NC(N)=NCCC[C@H](NC(=O)[C@@H]1CCCN1C(=O)[C@H](N)Cc1ccccc1)C(=O)CCl [PPACK]	41%	no effect	–
O=S(=O)(F)Cc1ccccc1 [PMSF, phenylmethylsulfonyl fluoride]	18%	65%	–
glucagon-like peptide 1 [GLP-1]	–	–	apparent serum half-life [3]: 1 to 2 min; cleavage by rat and human plasma DPP-IV [4]: rapid proteolytic cleavage
CCN1C(=O)C=CC1=O [NEM, N-ethylmaleimide]	not inhibited	not inhibited	–
c1cnc2c(c1)ccc1cccnc12 [1,10-phenanthroline]	> 77%	> 77%	–
C[C@H](CS)C(=O)N1CCC[C@H]1C(=O)O [captopril]	not inhibited	not inhibited	–
CC(C)C[C@H](NC(=O)[C@@H](O)[C@H](N)Cc1ccccc1)C(=O)O [bestatin]	11%	48%	–
trypsin inhibitor (soybean): soybean trypsin inhibitor (protein, UniProt P01070 25-205, looked up) Trypsin inhibitor A: DFVLDNEGNPLENGGTYYILSDITAFGGIRAAPTGNERCPLTVVQSRNELDKGIGTIISSPYRIRFIAEGHPLSLKFDSFAVIMLCVGIPTEWSVVEDLPEGPAVKIGENKDAMDGWFRLERVSDDEFNNYKLVFCPQQAEDDKCGDIGISIDHDDGTRRLVVSKNKPLVVQFQKLDKESL	no effect	20%	–
